Data: US20040147452A1, “Non-amphoteric glutathione derivative compositions for tropical application” (priority 2002, published 2004)
Where two headings read alike, the source gives them in different places.

Experiments:
[1] = test system: X-linked ichthyosis with severe dry skin; details: 3% cream under test chambers on forearm, subject
Method: A solution containing a non-amphoteric glutathione derivative was prepared. N-Acetyl-glutathione diethyl ester 3 g was dissolved in warm propylene glycol 17 ml, and the solution was mixed with 80 g oil-in-water cream base or hydrophilic ointment. The cream contained 3% non-amphoteric N-acetyl-glutathione diethyl ester.
A subject who had X-linked ichthyosis with severe dry skin participated in this study. Test spots were I cm square sites on extensor surface of forearm, a grid pattern formed by Hayes Test Chambers on Hayes adhesive strips. Each test chamber contained a square piece of filter paper which was fully saturated with the non-amphoteric glutathione derivative cream. Test chambers were impressed on the skin to leave outlines which were marked with SANFORD® SHARPIE® permanent marker. Sites were re-marked at each successive application of the test cream. Chambers were removed twice weekly, and replaced with a new adhesive strip of chambers with filter paper saturated with the test cream. The test was carried out for two weeks.

forearm skin = details: 5% solution with L-arginine; for increase in skin thickness: forearm
Method: The combined thickness of two whole-skin layers including thickness of the two hinge leaves was measured with micrometer calipers. The thickness of the two hinge leaves was subtracted to determine the actual thickness of two whole-skin layers. Triplicate measurements on treated sites were done and an average number was used for calculation of the skin thickness.
The solution thus prepared contained 5% non-amphoteric glutathione derivative. For comparative study, glutathione 5 g and L-arginine 1 g were dissolved in 94 ml solution prepared from water 70 parts and propylene glycol 30 parts. The solution thus prepared contained 5% amphoteric glutathione.
A subject, applied topically twice daily the above 5% amphoteric glutathione solution to their left forearm and 5% non-amphoteric glutathione derivative to their right forearm for four weeks.
A solution containing a non-amphoteric glutathione derivative was prepared. […] The solution thus prepared contained 5% non-amphoteric glutathione derivative.
A subject, applied topically twice daily the above 5% non-amphoteric glutathione derivative to their right forearm for eight weeks.
A subject, applied topically twice daily the above 5% non-amphoteric glutathione derivative to their left forearm for eight weeks.

chronic nummular eczema = details: 10% cream of Preparation Example 2, topically twice daily for two days, subject, right lower leg
Method: A solution containing a non-amphoteric glutathione derivative was prepared. […] The solution was mixed uniformly with 70 g cream base.

[2] = topically twice daily for four weeks, subject

SMILES	clinical evaluation, improvement of rough and scaly skin ([1]; after one week) [%]	appearance of severe dry skin ([1]; after two weeks)	increase in skin thickness (forearm skin; [2])	appearance of treated forearm skin (forearm skin; [2])	areas of the eczematous lesions reduced (chronic nummular eczema) [%]	appearance of treated forearm skin (forearm skin; topically twice daily for eight weeks, one subject per example)
CCOC(=O)CNC(=O)[C@H](CS)NC(=O)CC[C@H](NC(C)=O)C(=O)OCC [N-acetyl-glutathione diethyl ester, N-Acetyl-glutathione diethyl ester]	90	smooth and normal-looking				
N[C@@H](CCC(=O)N[C@@H](CS)C(=O)NCC(=O)O)C(=O)O [glutathione]			no change	still loose, relatively thin and wrinkled when lifted		
COC(=O)CNC(=O)[C@H](CS)NC(=O)CC[C@H](N)C(=O)OC.Cl [glutathione dimethyl ester, Glutathione dimethyl ester hydrochloride]			10%	more firm, smooth, plump and minimally wrinkled when lifted	75	more firm, smooth, plump and minimally wrinkled when lifted
